Tests used:
Assay type in all cases: in vivo
[1] = test system: common groundsel (Senecio vulgaris, SENVU); assay: Postemergence field trial #3, visual weed control in vines; settings: 83 to 158 days after application, penoxsulam 7 and/or flazasulfuron 25 grams ai/ha
Procedure: (§1) These trials were conducted under field conditions in France. Trial sites were located in commercially grown vines of European grape (Vitis vinifera). The grapes were grown using normal cultural practices for fertilization, seeding, and maintenance to ensure good growth of the crop and the weeds. The trials were conducted using normal research methodology. Trial plots were between 2 to 4.5 meters (m) wide by 5.5 to 10 m long. All treatments were applied using a randomized complete block trial design with 3 or 4 replications per treatment. The trial sites had naturally occurring populations of weeds. The weed spectrum included, but was not limited to, black nightshade (Solanum nigrum, SOLNI), pigeongrass or foxtail millet (Setaria sp., SETSS), common lambsquarter (Chenopodium album, CHEAL), round-leaved cranesbill (Geranium rotundifolium, GERRT), common groundsel (Senecio vulgaris, SENVU), mallow (Malva L., MALSS) and common purslane (Portulaca oleracea, POROL).
(§2) Treatments consisted of tank mixes of an oil dispersion of penoxsulam and commercially available formulations of flazasulfuron (Katana herbicide, water dispersible granules) applied in water. The application volumes were between 150-325 liters per hectare (L/ha). All application were made using precision gas hand sprayers using a 2 or 3 m boom using flat fan (80° or 110°) nozzles to broadcast the treatments on the soil.
(§3) The treated plots and control plots were rated blind at various intervals after application. Ratings were based of Percent (%) Visual weed control, where 0 corresponds to no injury and 100 corresponds to complete kill.
(§4) Colby's equation was used to determine the herbicidal effects expected from the mixtures (Colby, S. R. Calculation of the synergistic and antagonistic response of herbicide combinations. Weeds 1967 15, 20-22).
(§5) The following equation was used to calculate the expected activity of mixtures containing two active ingredients, A and B: Expected=A+B−(A×B/100)
(§6) A=observed efficacy of active ingredient A at the same concentration as used in the mixture;
(§7) B=observed efficacy of active ingredient B at the same concentration as used in the mixture.

[2] = test system: round-leaved cranesbill (Geranium rotundifolium, GERRT); assay: as above; settings: 83 to 158 days after application, penoxsulam 7 and/or flazasulfuron 25 grams ai/ha
Procedure: as §1, §2, §3, §4, §5, §6, §7

[3] = test system: common purslane (Portulaca oleracea, POROL); assay: as above; settings: 83 to 158 days after application, penoxsulam 7 and/or flazasulfuron 25 grams ai/ha
Procedure: as §1, §2, §3, §4, §5, §6, §7

[4] = test system: black nightshade (Solanum nigrum, SOLNI); assay: as above; settings: 83 to 158 days after application, penoxsulam 7 and/or flazasulfuron 25 grams ai/ha
Procedure: as §1, §2, §3, §4, §5, §6, §7

[5] = test system: pigeongrass or foxtail millet (Setaria sp., SETSS); assay: Postemergence field trial #1, visual weed control in vines; settings: 68 to 147 days after application, penoxsulam 7 and/or flazasulfuron 25 grams ai/ha
Procedure: as §1, §2, §3, §4, §5, §6, §7

[6] = test system: common lambsquarter (Chenopodium album, CHEAL); assay: as above; settings: 68 to 147 days after application, penoxsulam 7 and/or flazasulfuron 25 grams ai/ha
Procedure: as §1, §2, §3, §4, §5, §6, §7

[7] = test system: black nightshade (Solanum nigrum, SOLNI); assay: as above; settings: France, 68 to 147 days after application, penoxsulam 7 and/or flazasulfuron 25 grams ai/ha; for SOLNI (2) Obs - percent control observed: Field trial #1, Echallat; for SOLNI (1) Obs - percent control observed: Field trial #1, Port A Binson
Procedure: as §1, §2, §3, §4, §5, §6, §7

[8] = test system: common groundsel (Senecio vulgaris, SENVU); assay: Postemergence field trial #2, visual weed control in vines; settings: 118 to 158 days after application, penoxsulam 7 and/or flazasulfuron 25 grams ai/ha
Procedure: as §1, §2, §3, §4, §5, §6, §7

mallow (Malva L., MALSS) = assay: as above; settings: 118 to 158 days after application, penoxsulam 7 and/or flazasulfuron 25 grams ai/ha
Procedure: as §1, §2, §3, §4, §5, §6, §7

[9] = test system: round-leaved cranesbill (Geranium rotundifolium, GERRT); assay: as above; settings: 118 to 158 days after application, penoxsulam 7 and/or flazasulfuron 25 grams ai/ha
Procedure: as §1, §2, §3, §4, §5, §6, §7

[10] = test system: common purslane (Portulaca oleracea, POROL); assay: as above; settings: 118 to 158 days after application, penoxsulam 7 and/or flazasulfuron 25 grams ai/ha
Procedure: as §1, §2, §3, §4, §5, §6, §7

SMILES	SENVU Obs - percent control observed [1]	GERRT Obs - percent control observed [2]	POROL Obs - percent control observed [3]	SOLNI Obs - percent control observed [4]	SETSS Obs - percent control observed [5]	CHEAL Obs - percent control observed [6]	SOLNI (2) Obs - percent control observed [7]	SOLNI (1) Obs - percent control observed [7]	SENVU Obs - percent control observed [8]	MALSS Obs - percent control observed (mallow (Malva L., MALSS))	GERRT Obs - percent control observed [9]	POROL Obs - percent control observed [10]
COc1cc(OC)nc(NC(=O)NS(=O)(=O)c2ncccc2C(F)(F)F)n1 [Flazasulfuron, 1-(4,6-dimethoxypyrimidin-2-yl)-3-(3-trifluoromethyl-2-pyridylsulfonyl)urea]	30%	23%	78%	1%	73%	63%	58%	6%	30%	53%	23%	78%
COc1cnc(OC)n2nc(NS(=O)(=O)c3c(OCC(F)F)cccc3C(F)(F)F)nc12 [Penoxsulam]	3%	13%	0%	70%	1%	0%	17%	1%	3%	20%	13%	0%
